Data from patent US6784201B2, “Benzothiepines having activity as inhibitors of ileal bile acid transport and taurocholate uptake” (G.D. Searle & Company, priority 1994, dated 2004).

Assays:
[1] = tested on: Rat Ileal Uptake of [14C]-Taurocholate; assay: In vivo assay of rat ileal uptake of [14C]-taurocholate into bile (ileal loop)
Method: In Vivo Assay of Compounds that Inhibit Rat Ileal Uptake of [^14C]-Taurocholate into Bile
(See “Metabolism of 3α,7β-dihydroxy-7α-methyl-5β-cholanoic acid and 3α,7β-dihydroxy-7α-methyl-5β-cholanoic acid in hamsters” in Biochimica et Biophysica Acta 833 (1985) 196-202 by Une et al.)
Male wistar rats (200-300 g) are anesthetized with inactin @100 mg/kg. Bile ducts are cannulated with a 10″ length of PE10 tubing. The small intestine is exposed and laid out on a gauze pad. A canulae (⅛″ luer lock, tapered female adapter) is inserted at 12 cm from the junction of the small intestine and the cecum. A slit is cut at 4 cm from this same junction (utilizing a 8 cm length of ileum). 20 ml of warm Dulbecco's phosphate buffered saline, pH 6.5 (PBS) is used to flush out the intestine segment. The distal opening is cannulated with a 20 cm length of silicone tubing (0.02″ I.D.×0.037″ O.D.). The proximal cannulae is hooked up to a peristaltic pump and the intestine is washed for 20 min with warm PBS at 0.25 ml/min. Temperature of the gut segment is monitored continuously. At the start of the experiment, 2.0 ml of control sample ([^14C]-taurocholate @ 0.05 mi/ml with 5 mM cold taurocholate) is loaded into the gut segment with a 3 ml syringe and bile sample collection is begun. Control sample is infused at a rate of 0.25 ml/min for 21 min. Bile samples fractions are collected every 3 minute for the first 27 minutes of the procedure. After the 21 min of sample infusion, the ileal loop is washed out with 20 ml of warm PBS (using a 30 ml syringe), and then the loop is washed out for 21 min with warm PBS at 0.25 ml/min. A second perfusion is initiated as described above but this with test compound being administered as well (21 min administration followed by 21 min of wash out) and bile sampled every 3 min for the first 27 min. If necessary, a third perfusion is performed as above that typically contains the control sample.

[2] = tested on: Rabbit Ileal brush border membranes; assay: [3H]taurocholate uptake in rabbit brush border membrane vesicles (BBMV); format: biochemical; conditions: read-out: TC-uptake (BBMV) IC(50)
Method: [^3H]Taurocholate Uptake in Rabbit Brush Border Membrane Vesicles (BBMV)
Rabbit Ileal brush border membranes were prepared from frozen iheal mucosa by the calcium precipitation method describe by Malathi et al. (Reference: (1979) Biochimica Biophysica Acta, 554, 259). The method for measuring taurocholate was essentially as described by Kramer et al. (Reference: (1992) Biochimica Biophysica Acta, 1111, 93) except the assay volume was 200 μl instead of 100 μl.

[3] = biological target: ACAT; assay: Acyl-CoA; cholesterol acyl transferase (ACAT), hamster liver microsomes; format: biochemical; conditions: read-out: ACAT (liver) IC(50)
Method: Acyl-CoA; Cholesterol Acyl Transferase (ACAT)
Hamster liver and rat intestinal microsomes were prepared from tissue as described previously (Reference: (1980) J. Biol. Chem. 255, 9098) and used as a source of ACAT enzyme. The assay consisted of a 2.0 ml incubation containing 24 μM Oleoyl-CoA (0.05 μCi) in a 50 mM sodium phosphate, 2 mM DTT ph 7.4 buffer containing 0.25% BSA and 200 μg of microsomal protein. The assay was initiated by the addition of oleoyl-CoA. The reaction went for 5 min at 37° C. and was terminated by the addition of 8.0 ml of chloroform/methanol (2:1). […] The chloroform phase was taken to dryness and then spotted on a silica gel 60 TLC plate and developed in hexane/ethyl ether (9:1). The amount of cholesterol ester formed was determined by measuring the amount of radioactivity incorporated into the cholesterol oleate spot on the TLC plate with a Packard instaimager.

[4] = Efficacy in cholesterol-fed hamsters: body, liver and fecal weight; format: in vivo, hamster; conditions: 0.2% Cpd. No. 25, mean (SEM)
[5] = tested on: Hepatic HMG CoA-Reductase; assay: Hepatic HMG CoA-reductase activity, cholesterol-fed hamsters; format: in vivo, hamster; conditions: 0.2% Cpd. No. 25, mean (SEM)
Method: (§1) Measurement of Hepatic HMG CoA-Reductase Activity (HMG COA)
(§2) Hepatic microsomes were prepared by homogenizing liver samples in a phosphate/sucrose buffer, followed by centrifugal separation. The final pelleted material was resuspended in buffer and an aliquot was assayed for HMG CoA reductase activity by incubating for 60 minutes at 37° C. in the presence of ^14C-HMG-CoA (Dupont-NEN). The reaction was stopped by adding 6N HCl followed by centrifugation. An aliquot of the supernatant was separated, by thin-layer chromatography, and the spot corresponding to the enzyme product was scraped off the plate, extracted and radioactivity was determined by scintillation counting. (Reference: Akerlund, J. and Bjorkhem, I. (1990) J. Lipid Res. 31, 2159).

[6] = tested on: Hepatic Cholesterol 7-α-Hydroxylase; assay: Hepatic cholesterol 7-α-hydroxylase activity, cholesterol-fed hamsters; format: in vivo, hamster; conditions: 0.2% Cpd. No. 25, mean (SEM)
Method: Measurement of Hepatic Cholesterol 7-α-Hydroxylase Activity (7a-OHase)
Hepatic microsomes were prepared by homogenizing liver samples in a phosphate/sucrose buffer, followed by centrifugal separation. The final pelleted material was resuspended in buffer and an aliquot was assayed for cholesterol 7-α-hydroxylase activity by incubating for 5 minutes at 37° C. in the presence of NADPH. Following extraction into petroleum ether, the organic solvent was evaporated and the residue was dissolved in acetonitrile/methanol. The enzymatic product was separated by injecting an aliquot of the extract onto a C18 reversed phase HPLC column and quantitating the eluted material using UV detection at 240 nm. (Reference: Horton, J. D., et al. (1994) J. Clin. Invest. 93, 2084).

[7] = tested on: Fecal Bile Acid; assay: Fecal bile acid concentration (FBA), cholesterol-fed hamsters; format: in vivo, hamster; conditions: 0.2% Cpd. No. 25, mean (SEM)
Method: Measurement of Fecal Bile Acid Concentration (FBA)
Total fecal output from individually housed hamsters was collected for 24 or 48 hours, dried under a stream of nitrogen, pulverized and weighed. Approximately 0.1 gram was weighed out and extracted into an organic solvent (butanol/water). Following separation and drying, the residue was dissolved in methanol and the amount of bile acid present was measured enzymatically using the 3α-hydroxysteroid steroid dehydrogenase reaction with bile acids to reduce NAD. (Reference: Mashige, F., et al. (1981) Clin. Chem. 27, 1352).

[8] = tested on: Hepatic Cholesterol; assay: Hepatic cholesterol concentration, rat Alzet minipump model; format: in vivo; conditions: 20 MPL/DAY, mean (SEM)
Method: Measurement of Hepatic Cholesterol Concentration (Hepatic CHOL)
Liver tissue was weighed and homogenized in chloroform:methanol (2:1). After homogenization and centrifugation the supernatant was separated and dried under nitrogen. The residue was dissolved in isopropanol and the cholesterol content was measured enzymatically, using a combination of cholesterol oxidase and peroxidase, as described by Allain, C. A., et al. (1974) Clin. Chem. 20, 470.

[9] = tested on: Hepatic HMG CoA-Reductase; assay: Hepatic HMG CoA-reductase activity, rat Alzet minipump model; format: in vivo; conditions: 20 MPL/DAY, mean (SEM)
Method: as §1, §2

CCCC[C@]1(CC)CS(=O)(=O)c2cc(OC)ccc2[C@@H](c2ccccc2)[C@H]1O [Example 25, (3α,4β,5β) 3-Butyl-3-ethyl-4-hydroxy-8-methoxy-5-phenyl-2,3,4,5-tetrahydrobenzothiepine-1,1-dioxide]
activity at 100 µM ([1]; Rattus norvegicus, read-out: % of Control Transport of TC in Rat Ileum @ 0.1 mM): 26% | EC50 ([1]; rat ileal loop, read-out: TC-uptake Ileal Loop EC(50)): 20 µM | IC50 [2]: 0.8 µM | IC50 [3]: 8 µM | LIVER WEIGHT (G) [4]: 5.8 (0.2) G | WEIGHT (G) day 1 [4]: 117 (5) G | WEIGHT (G) day 14 [4]: 132 (4) G | HMG COA (pm/mg/min.) [5]: 312.9 (37.5) pm/mg/min. | 7a-OHase (pm/mg/min.) [6]: 291.0 (6.0) *A pm/mg/min. | FBA (mM/24 H/100 g) [7]: 11.9 (0.5) mM/24 H/100 g | HEPATIC CHOL (mg/g) [8]: 2.0 (0.03) mg/g | HMG COA pm/mg/min [9]: 318.0 (40.7) *A, B pm/mg/min
